# Source: patent US20260262643A1, “HERBICIDAL BENZOXAZINES” (FMC CORPORATION, priority 2022, published 2026)
# How the values were obtained:
# [1] = test system: barnyardgrass; experiment: Test C preemergence; format: in vivo, Echinochloa crusgalli
# Outline: (§1)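 Visual injury ratings on a 0–100 scale (100 = complete control) were made against untreated controls 10 days after treatment in the greenhouse. Compounds, formulated with surfactant in non-phytotoxic solvent, were sprayed on soil preemergence or onto one- to two-leaf plants 2–10 cm tall postemergence.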
# [2] = test system: blackgrass; experiment: Test C preemergence; format: in vivo, Alopecurus myosuroides
# Outline: as §1
# [3] = test system: corn; experiment: Test C preemergence; format: in vivo, Zea mays; settings: Preemergence, 125 g ai/ha; 0 to 100 scale, 0 no effect, 100 complete control
# Outline: as §1
# [4] = test system: foxtail, giant; experiment: Test C preemergence; format: in vivo, Setaria faberi
# Outline: as §1
# [5] = test system: kochia; experiment: Test C preemergence; format: in vivo, Bassia scoparia
# Outline: as §1
# [6] = test system: oat, wild; experiment: Test C preemergence; format: in vivo, Avena fatua
# Outline: as §1
# [7] = test system: pigweed, palmer; experiment: Test C preemergence; format: in vivo, Amaranthus palmeri
# Outline: as §1
# [8] = test system: ragweed; experiment: Test C preemergence; format: in vivo, Ambrosia artemisiifolia
# Outline: as §1
# [9] = test system: ryegrass, Italian; experiment: Test C preemergence; format: in vivo, Lolium multiflorum
# Outline: as §1
# [10] = test system: soybean; experiment: Test C preemergence; format: in vivo, Glycine max
# Outline: as §1
# [11] = test system: wheat; experiment: Test C preemergence; format: in vivo, Triticum aestivum
# Outline: as §1
# [12] = test system: barnyardgrass; experiment: Test C postemergence; format: in vivo, Echinochloa crusgalli; settings: 10 days, 0 to 100 scale (0 no effect, 100 complete control)
# Outline: as §1
# [13] = test system: blackgrass; experiment: Test C postemergence; format: in vivo, Alopecurus myosuroides; settings: 10 days, 0 to 100 scale (0 no effect, 100 complete control)
# Outline: as §1
# [14] = test system: corn; experiment: Test C postemergence; format: in vivo, Zea mays; settings: 10 days, 0 to 100 scale (0 no effect, 100 complete control)
# Outline: as §1
# [15] = test system: foxtail, giant; experiment: Test C postemergence; format: in vivo, Setaria faberi; settings: 10 days, 0 to 100 scale (0 no effect, 100 complete control)
# Outline: as §1
# [16] = test system: kochia; experiment: Test C postemergence; format: in vivo, Bassia scoparia; settings: 10 days, 0 to 100 scale (0 no effect, 100 complete control)
# Outline: as §1
# [17] = test system: oat, wild; experiment: Test C postemergence; format: in vivo, Avena fatua; settings: 10 days, 0 to 100 scale (0 no effect, 100 complete control)
# Outline: as §1
# [18] = test system: pigweed, palmer; experiment: Test C postemergence; format: in vivo, Amaranthus palmeri; settings: 10 days, 0 to 100 scale (0 no effect, 100 complete control)
# Outline: as §1
# [19] = test system: ragweed; experiment: Test C postemergence; format: in vivo, Ambrosia artemisiifolia; settings: 10 days, 0 to 100 scale (0 no effect, 100 complete control)
# Outline: as §1
# [20] = test system: ryegrass, Italian; experiment: Test C postemergence; format: in vivo, Lolium multiflorum; settings: 10 days, 0 to 100 scale (0 no effect, 100 complete control)
# Outline: as §1
# [21] = test system: soybean; experiment: Test C postemergence; format: in vivo, Glycine max; settings: 10 days, 0 to 100 scale (0 no effect, 100 complete control)
# Outline: as §1
# [22] = test system: wheat; experiment: Test C postemergence; format: in vivo, Triticum aestivum; settings: 10 days, 0 to 100 scale (0 no effect, 100 complete control)
# Outline: as §1
# [23] = test system: galium; experiment: Test C postemergence; format: in vivo, Galium aparine; settings: 10 days, 0 to 100 scale (0 no effect, 100 complete control)
# Outline: as §1
# [24] = test system: horseweed; experiment: Test C postemergence; format: in vivo, Erigeron canadensis; settings: 10 days, 0 to 100 scale (0 no effect, 100 complete control)
# Outline: as §1
# [25] = test system: barnyardgrass; experiment: Test D flooded paddy test; format: in vivo, Echinochloa crus-galli; settings: 250 g ai/ha, applied to paddy water, visual rating after 13 to 14 days, scale 0 to 100 (0 no effect, 100 complete control)
# Outline: (§2)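 Post-flood water application at the 2-leaf stage; 3 cm flood depth kept constant; visual control rating 0–100 after 13–14 days greenhouse growth.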
# [26] = test system: ducksalad; experiment: Test D flooded paddy test; format: in vivo, Heteranthera limosa; settings: 250 g ai/ha, applied to paddy water, visual rating after 13 to 14 days, scale 0 to 100 (0 no effect, 100 complete control)
# Outline: as §2
# [27] = test system: rice; experiment: Test D flooded paddy test; format: in vivo, Oryza sativa; settings: 250 g ai/ha, applied to paddy water, visual rating after 13 to 14 days, scale 0 to 100 (0 no effect, 100 complete control)
# Outline: as §2
# [28] = test system: sedge, umbrella; experiment: Test D flooded paddy test; format: in vivo, Cyperus difformis; settings: 250 g ai/ha, applied to paddy water, visual rating after 13 to 14 days, scale 0 to 100 (0 no effect, 100 complete control)
# Outline: as §2
# [29] = 500 g ai/ha, preemergence, 0 to 100 scale (0 no effect, 100 complete control)
# [30] = Preemergence, 125 g ai/ha, 0 to 100 scale, 0 no effect, 100 complete control
structure (smiles),measurement,setting,value
COc1ccc(-n2cnc(C3CC3)n2)cc1C(=O)N1C[C@H](C)Oc2c(Cl)cccc21 [Compound 324],Barnyardgrass plant response rating,[1]; [29],100
same,"Plant response rating, Barnyardgrass",[1]; [30],90
same,Blackgrass plant response rating,[2]; [29],90
same,"Plant response rating, Blackgrass",[2]; [30],70
same,"Plant response rating, Corn",[3],0
same,"Foxtail, Giant plant response rating",[4]; [29],100
same,"Plant response rating, Foxtail, Giant",[4]; [30],90
same,Kochia plant response rating,[5]; [29],90
same,"Plant response rating, Kochia",[5]; [30],90
same,"Oat, Wild plant response rating",[6]; [29],90
same,"Plant response rating, Oat, Wild",[6]; [30],0
same,"Pigweed, Palmer plant response rating",[7]; [29],100
same,"Plant response rating, Pigweed, Palmer",[7]; [30],100
same,Ragweed plant response rating,[8]; [29],90
same,"Plant response rating, Ragweed",[8]; [30],50
same,"Ryegrass, Italian plant response rating",[9]; [29],100
same,"Plant response rating, Ryegrass, Italian",[9]; [30],80
same,Soybean plant response rating,[10]; [29],90
same,"Plant response rating, Soybean",[10]; [30],100
same,Wheat plant response rating,[11]; [29],90
same,"Plant response rating, Wheat",[11]; [30],10
same,"Plant response rating, Barnyardgrass","[12]; 500 g ai/ha, postemergence",80
same,"Plant response rating, Barnyardgrass","[12]; Postemergence, 125 g ai/ha",50
same,"Plant response rating, Blackgrass","[13]; 500 g ai/ha, postemergence",90
same,"Plant response rating, Blackgrass","[13]; Postemergence, 125 g ai/ha",90
same,"Plant response rating, Corn","[14]; 500 g ai/ha, postemergence",90
same,"Plant response rating, Corn","[14]; Postemergence, 125 g ai/ha",70
same,"Plant response rating, Foxtail, Giant","[15]; 500 g ai/ha, postemergence",90
same,"Plant response rating, Foxtail, Giant","[15]; Postemergence, 125 g ai/ha",80
same,"Plant response rating, Kochia","[16]; 500 g ai/ha, postemergence",100
same,"Plant response rating, Kochia","[16]; Postemergence, 125 g ai/ha",90
same,"Plant response rating, Oat, Wild","[17]; 500 g ai/ha, postemergence",70
same,"Plant response rating, Oat, Wild","[17]; Postemergence, 125 g ai/ha",10
same,"Plant response rating, Pigweed, Palmer","[18]; 500 g ai/ha, postemergence",100
same,"Plant response rating, Pigweed, Palmer","[18]; Postemergence, 125 g ai/ha",90
same,"Plant response rating, Ragweed","[19]; 500 g ai/ha, postemergence",70
same,"Plant response rating, Ragweed","[19]; Postemergence, 125 g ai/ha",60
same,"Plant response rating, Ryegrass, Italian","[20]; 500 g ai/ha, postemergence",50
same,"Plant response rating, Ryegrass, Italian","[20]; Postemergence, 125 g ai/ha",40
same,"Plant response rating, Soybean","[21]; 500 g ai/ha, postemergence",100
same,"Plant response rating, Soybean","[21]; Postemergence, 125 g ai/ha",100
same,"Plant response rating, Wheat","[22]; 500 g ai/ha, postemergence",30
same,"Plant response rating, Wheat","[22]; Postemergence, 125 g ai/ha",30
same,"Plant response rating, Galium","[23]; 500 g ai/ha, postemergence",100
same,"Plant response rating, Galium","[23]; Postemergence, 125 g ai/ha",100
same,"Plant response rating, Horseweed","[24]; 500 g ai/ha, postemergence",80
same,"Plant response rating, Horseweed","[24]; Postemergence, 125 g ai/ha",60
same,"Plant response rating, Barnyardgrass (Flood)",[25],40
same,"Plant response rating, Ducksalad (Flood)",[26],80
same,"Plant response rating, Rice (Flood)",[27],10
same,"Plant response rating, Sedge, Umbrella (Flood)",[28],98
